Key:
Assay type in all cases: cell-based
[1] = tested on: actin cytoskeletons in mono-layer cell cultures; assay: Confocal microscopy of actin cytoskeletons stained with Rhodamine phalloidin; settings: CD 2 nM
ring tissue model = assay: Contractile force developed by ring sample during tissue development (matrix remodeling and compression); settings: Cytochalasin D 2 μM
Method: The contractile force developed by the ring sample during matrix remodeling and compression can be measured by connecting the ring to the force measuring apparatus as described above within about 1-2 hours after collagen gelation. The cells begin to exert a force on the matrix after this time. Then the increase of force during tissue development (remodeling and compression) is observed over time.
Maximum force is typically reached within 15 to 20 hours. This process was also disrupted by several inhibitors as illustrated in FIGS. 18(b)-(d).

[2] = tested on: bio-artificial tissues (F-actin network); assay: Tissue indentation device: force-time and longitudinal force-strain curves (Example 15)
Method: (§1) Bio-artificial tissues were generated by mixing cells and neutralized collagen, as described elsewhere (Wakatsuki et al., 2000, Biophys. J. 79:2353-2368). Briefly, cells were mixed with neutralized rat-tail collagen (Millipore Billerica, Mass.) and media containing 10% Fetal Bovine Serum (FBS). 200-250[…]1 of this solution is poured into wells as described below. The tissues are cultured in Dulbecco's modified Eagle's medium (DMEM) supplemented with 10% FBS and antibiotics (penicillin and streptomycin) in an incubator for two or three days. The bio-artificial tissue membrane was stretched using a mechanical testing device is (as detailed below). During the mechanical measurements, culture medium was switched to a HEPES-buffered DMEM, pH 7.4, and maintained at 37° C.
A chamber to hold 8 bio-artificial tissues was machined from a polycarbonate bar (25×60×10 mm) using a tabletop CNC mill (Sherline Products Inc., Vista, Calif.). The 8 square wells of 8×8 mm contained 2 horizontal stainless-steel (medical grade) bars (1 mm diameter) which centers were located 2 mm above bottom and 2 mm beside each wall and were 4 mm apart (FIG. 29A). A microscope cover-slip (No. 1 thickness, Fisher brand) sealed the bottom of wells using silicon glue (Dow chemicals) to facilitate microscopic imaging of cells and bio-artificial tissues. […]
The mechanical testing device is depicted in FIG. 29A. […] The linear actuators were controlled simultaneously by a personal computer that also recorded the signal generated by the force transducer. […]
While the force-probe indents the bio-artificial tissues vertically at a constant rate, ν (0.5 mm/sec), an isometric force transducer connected to the force probe recorded a resistance force, F(t). A time dependent change in bio-artificial tissues-membrane force in the longitudinal direction, T(t), was calculated from F(t) by a trigonometric relationship (FIG. 28). This rate of indentation was determined to achieve a minimum noise-level by the current device arrangement. […]

[3] = tested on: bio-artificial tissues including chicken embryo fibroblasts; assay: Tissue indentation device: stiffness and active cell force after CD (Example 16)
Method: as §1
Cells used in this study included: (1) rat embryo fibroblasts (REF52 cell line) maintained in DMEM supplemented with 10% FBS split once a week (kind gift from Dr. Wysolmerski, Department of Neurobiology and Anatomy, West Virginia University School of Medicine), (2) chicken embryo fibroblasts (CEFs) isolated from 10 day old chicken embryos using a previously described protocol (Wakatsuki et al., 2000, Biophys. J. 79(5):2353-2368) maintained in DMEM supplemented with 3% FBS (passage 2 to 5), and (3) smooth muscle cells (SMC) isolated from adult rat aorta using a previously described protocol (Griendling et al., 1991, J. Biol. Chem. 266(23):15498-15504) cultured in DMEM supplemented with 10% FBS and 1% […] (passage 10-12).
A chamber to hold 8 bio-artificial tissues was machined from a polycarbonate bar (25×60×10 mm) using a tabletop CNC mill (Sherline Products Inc., Vista, Calif.). The 8 square wells of 8×8 mm contained 2 horizontal stainless-steel (medical grade) bars (1 mm diameter) which centers were located 2 mm above bottom and 2 mm beside each wall and were 4 mm apart (FIG. 29A). A microscope cover-slip (No. 1 thickness, Fisher brand) sealed the bottom of wells using silicon glue (Dow chemicals) to facilitate microscopic imaging of cells and bio-artificial tissues. A pre-polymerized solution of bio-artificial tissues was poured into the wells until the horizontal bars became immersed to half of its depth. During tissue culture, the solution gelled and entrapped cells that remodeled and compacted the gel (Tranquillo, 1999, Biochem. Soc. Symp. 65:27-42) by cell traction force. By the next day, the bio-artificial tissues detached from the bottom and side wall to form a membrane spanning between the two bars. The bio-artificial tissues stiffened to form a thin layer of tissue overlaying the bars and generated active tension within the bio-artificial tissues. The chambers were sterilized by UV before usage and kept in a 100 mm sterile Petri dish to avoid any contamination.
The mechanical testing device is depicted in FIG. 29A. A horizontal linear actuator (FIG. 29A-a, ER32-SRN300A, Parker, Wadsworth, Ohio) automatically places the center of each well at right angles below a force-probe (FIG. 29A-c). The bottom of L-shaped probe indents and bends the bio-artificial tissues at the middle (FIG. 29D). The other end of the probe is connected to an isometric force transducer (FIG. 29A-b, model 52-9545, Harvard Apparatus, South Natick, Mass.) and moved by a vertical linear actuator (FIG. 29A-a, ER32-SRN100A, Parker, Wadsworth, Ohio). During the tests, the temperature of bio-artificial tissues in the wells was maintained at 37° C. using a water jacketed warm plate (FIG. 29A-e) connected to a circulating water bath (HAAKE C10-P5, Thermo Fisher Scientific, Inc. Waltham, Mass.). The linear actuators were controlled simultaneously by a personal computer that also recorded the signal generated by the force transducer. The bio-artificial tissues can be quickly placed in a holder at its designated position for mechanical measurements. A time dependent function to lengthen and shorten bio-artificial tissues was predetermined using the computer software of the device. […]

C=C1[C@@H](C)[C@H]2[C@H](Cc3ccccc3)NC(=O)[C@]23[C@H](OC(C)=O)/C=C/[C@@](C)(O)C(=O)[C@@H](C)C/C=C/[C@H]3[C@@H]1O [CD, cytochalasin D]
effect on actin cytoskeletons by confocal microscopy [1]: no effect was observed | development of force during ring tissue development (ring tissue model): completely abolished | pre-force σ0A (minimum force) compared to untreated control ([2]; 90 nM CD): reduced levels | resistance force F(t) while stretching the membrane ([2]; 90 nM and 2 μM CD): less resistance force | pre-force σ0A (minimum force) compared to untreated control ([2]; 2 μM CD): reduced levels | pre-force (active cell force, CD treatment over control) ([3]; 200 pM to 2 μM CD, two hours post-treatment): concentration-dependent reduction | EACD/EACT (ratio of post- over pre- CD treated stiffness) ([3]; [CD] 0.2 nM): 0.932 ± 0.013 | zCD-zCT (difference in sample surface height between post- and pre- CD treated samples) ([3]; [CD] 0.2 nM): −8.925 ± 9.257 μm | EACD/EACT (ratio of post- over pre- CD treated stiffness) ([3]; [CD] 0.9 nM): 0.938 ± 0.016 | zCD-zCT (difference in sample surface height between post- and pre- CD treated samples) ([3]; [CD] 0.9 nM): −21.761 ± 8.982 μm | EACD/EACT (ratio of post- over pre- CD treated stiffness) ([3]; [CD] 4 nM): 0.986 ± 0.015 | zCD-zCT (difference in sample surface height between post- and pre- CD treated samples) ([3]; [CD] 4 nM): −23.707 ± 13.222 μm | EACD/EACT (ratio of post- over pre- CD treated stiffness) ([3]; [CD] 20 nM): 0.979 ± 0.013 | zCD-zCT (difference in sample surface height between post- and pre- CD treated samples) ([3]; [CD] 20 nM): 4.550 ± 7.653 μm | EACD/EACT (ratio of post- over pre- CD treated stiffness) ([3]; [CD] 90 nM): 0.970 ± 0.016 | zCD-zCT (difference in sample surface height between post- and pre- CD treated samples) ([3]; [CD] 90 nM): −22.054 ± 12.989 μm | EACD/EACT (ratio of post- over pre- CD treated stiffness) ([3]; [CD] 400 nM): 0.964 ± 0.021 | zCD-zCT (difference in sample surface height between post- and pre- CD treated samples) ([3]; [CD] 400 nM): −17.607 ± 6.533 μm | EACD/EACT (ratio of post- over pre- CD treated stiffness) ([3]; [CD] 2000 nM): 1.077 ± 0.050 | zCD-zCT (difference in sample surface height between post- and pre- CD treated samples) ([3]; [CD] 2000 nM): −35.318 ± 15.189 μm | EA (mechanical properties of extracellular matrix) ([3]; after the CD treatment): did not change at all

Source: patent US8227240B2, “Systems for screening pharmaceutical chemicals” (The Washington University, priority 2001, dated 2012)
